Target: T1, ΔF508-CFTR (Homo sapiens, UniProt P13569, DEL508-508)
T1 construct: expressed in transfected cells
Assay: Membrane potential optical (FRET/VIPR) assay, identification of potentiator compounds
Assay type: cell-based
Conditions: Table 3, assay not given; for % Activity: relative efficacy
How it was run: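 Double-addition potentiator screen: compound delivered in gluconate-substituted Cl^--free medium, membrane potential followed via CC2-DMPE/DiSBAC2(3) FRET on VIPR. Cells were ΔF508-CFTR-expressing NIH3T3 mouse fibroblasts, held 2 h at 37° C. then 24 h at 27° C. before assay.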

T1 sequence (P13569 with tags, fused parts or gaps DEL508-508): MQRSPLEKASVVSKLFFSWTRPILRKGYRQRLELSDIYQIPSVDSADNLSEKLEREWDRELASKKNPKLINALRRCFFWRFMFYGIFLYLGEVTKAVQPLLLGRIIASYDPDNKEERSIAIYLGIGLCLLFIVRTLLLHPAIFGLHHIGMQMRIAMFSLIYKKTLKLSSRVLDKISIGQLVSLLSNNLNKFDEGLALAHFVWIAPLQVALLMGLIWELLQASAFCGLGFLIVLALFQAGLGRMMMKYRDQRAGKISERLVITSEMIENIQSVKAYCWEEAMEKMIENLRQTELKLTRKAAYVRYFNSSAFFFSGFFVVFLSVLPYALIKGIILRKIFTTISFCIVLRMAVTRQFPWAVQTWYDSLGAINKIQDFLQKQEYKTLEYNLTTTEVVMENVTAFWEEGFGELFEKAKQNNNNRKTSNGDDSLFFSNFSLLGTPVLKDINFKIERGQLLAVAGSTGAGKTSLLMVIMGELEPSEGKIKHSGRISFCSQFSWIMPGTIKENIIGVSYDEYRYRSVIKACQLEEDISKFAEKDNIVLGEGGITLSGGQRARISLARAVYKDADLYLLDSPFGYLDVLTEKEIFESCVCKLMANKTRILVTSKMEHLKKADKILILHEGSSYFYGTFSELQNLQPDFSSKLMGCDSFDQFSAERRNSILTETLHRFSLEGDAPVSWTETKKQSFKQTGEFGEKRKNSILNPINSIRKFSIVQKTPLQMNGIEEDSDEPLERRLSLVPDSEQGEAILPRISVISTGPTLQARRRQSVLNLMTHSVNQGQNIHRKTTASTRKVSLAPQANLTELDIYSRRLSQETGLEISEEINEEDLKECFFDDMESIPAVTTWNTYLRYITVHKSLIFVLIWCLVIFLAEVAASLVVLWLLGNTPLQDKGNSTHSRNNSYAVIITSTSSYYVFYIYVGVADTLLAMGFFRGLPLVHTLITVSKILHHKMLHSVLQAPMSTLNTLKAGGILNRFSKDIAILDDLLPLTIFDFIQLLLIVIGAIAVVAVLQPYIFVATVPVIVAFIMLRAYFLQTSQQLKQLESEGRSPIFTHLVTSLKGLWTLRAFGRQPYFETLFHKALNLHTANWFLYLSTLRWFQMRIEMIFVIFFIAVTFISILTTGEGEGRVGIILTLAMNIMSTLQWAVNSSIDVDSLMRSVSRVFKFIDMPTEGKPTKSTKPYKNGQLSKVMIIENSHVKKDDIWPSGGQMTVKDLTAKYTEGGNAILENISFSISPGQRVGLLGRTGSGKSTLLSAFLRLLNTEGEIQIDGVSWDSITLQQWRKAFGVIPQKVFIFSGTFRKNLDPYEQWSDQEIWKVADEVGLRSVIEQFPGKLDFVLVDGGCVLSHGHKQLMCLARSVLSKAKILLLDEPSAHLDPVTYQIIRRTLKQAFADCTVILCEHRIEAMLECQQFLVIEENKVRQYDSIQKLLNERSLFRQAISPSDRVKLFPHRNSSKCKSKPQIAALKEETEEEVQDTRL

| Compound | EC50 | % Activity |
| --- | --- | --- |
| Cc1ccc2c(=O)c(C(=O)Nc3cc4[nH]ccc4cc3C(C)(C)C)c[nH]c2c1 [Compound 704, 7-methyl-4-oxo-N-(5-tert-butyl-1H-indol-6-yl)-1H-quinoline-3-carboxamide] | < 10 µM | ++ (between 25% to 100%) |
| O=C(Nc1ccc(N2CC[C@@H](O)C2)cc1C(F)(F)F)c1c[nH]c2ccccc2c1=O [Compound 705, (R)-N-(4-(3-hydroxypyrrolidin-1-yl)-2-(trifluoromethyl)phenyl)-4-oxo-1,4-dihydroquinoline-3-carboxamide] | < 10 µM | ++ (between 25% to 100%) |
| CC1(c2cc(F)c(NC(=O)c3c[nH]c4cccc(C(F)(F)F)c4c3=O)cc2O)CCCCC1 [Compound 706, N-[2-fluoro-5-hydroxy-4-(1-methylcyclohexyl)-phenyl]-4-oxo-5-(trifluoromethyl)-1H-quinoline-3-carboxamide] | < 10 µM | +++ (>100%) |
| CC(C)(C)c1ccc(NC(=O)c2c[nH]c3ccccc3c2=O)cc1N1CCCC1 [Compound 707, 4-oxo-N-(3-pyrrolidin-1-yl-4-tert-butyl-phenyl)-1H-quinoline-3-carboxamide] | < 10 µM | ++ (between 25% to 100%) |
| O=C(Nc1csc(C(F)(F)F)c1-c1ccccc1)c1c[nH]c2ccccc2c1=O [Compound 708, 4-oxo-N-[4-phenyl-5-(trifluoromethyl)-3-thienyl]-1H-quinoline-3-carboxamide] | < 10 µM | ++ (between 25% to 100%) |
| COc1cc2c(=O)c(C(=O)Nc3cc(O)c(C(C)(C)C)cc3C(C)(C)C)c[nH]c2cc1F [Compound 709, 7-fluoro-N-(5-hydroxy-2,4-ditert-butyl-phenyl)-6-methoxy-4-oxo-1H-quinoline-3-carboxamide] | < 10 µM | +++ (>100%) |
| CN1CCC(C)(C)c2ccc(NC(=O)c3c[nH]c4ccccc4c3=O)cc21 [Compound 710, 4-oxo-N-(1,4,4-trimethyl-2,3-dihydroquinolin-7-yl)-1H-quinoline-3-carboxamide] | < 10 µM | ++ (between 25% to 100%) |
| O=C(Nc1cc(C(=O)O)c2cc[nH]c2c1)c1c[nH]c2ccccc2c1=O [Compound 711, 6-[(4-oxo-1H-quinolin-3-yl)carbonylamino]-1H-indole-4-carboxylic acid] | < 10 µM | ++ (between 25% to 100%) |
| C[C@H]1CCCCN1c1ccc(NC(=O)c2c[nH]c3ccccc3c2=O)c(C(F)(F)F)c1 [Compound 713, (S)-N-(4-(2-methylpiperidin-1-yl)-2-(trifluoromethyl)phenyl)-4-oxo-1,4-dihydroquinoline-3-carboxamide] | < 10 µM | +++ (>100%) |
| C[C@H]1CCCN1c1ccc(NC(=O)c2c[nH]c3ccc(F)cc3c2=O)c(C(F)(F)F)c1 [Compound 714, (S)-6-fluoro-N-(4-(2-methylpyrrolidin-1-yl)-2-(trifluoromethyl)phenyl)-4-oxo-1,4-dihydroquinoline-3-carboxamide] | < 10 µM | ++ (between 25% to 100%) |
| COC(=O)[C@@H]1CCCCN1c1ccc(NC(=O)c2c[nH]c3ccccc3c2=O)c(C(F)(F)F)c1 [Compound 715, (S)-methyl 1-(4-(4-oxo-1,4-dihydroquinoline-3-carboxamido)-3-(trifluoromethyl)phenyl)piperidine-2-carboxylate] | < 10 µM | ++ (between 25% to 100%) |
| O=C(Nc1ccc(C(F)(F)F)c(O)c1)c1c[nH]c2c(Cl)cccc2c1=O [Compound 716, 8-chloro-N-[3-hydroxy-4-(trifluoromethyl)phenyl]-4-oxo-1H-quinoline-3-carboxamide] | < 10 µM | ++ (between 25% to 100%) |
| COc1cc(NC(=O)c2c[nH]c3ccccc3c2=O)cc2ccccc12 [Compound 717, N-(4-methoxy-2-naphthyl)-4-oxo-1H-quinoline-3-carboxamide] | < 10 µM | ++ (between 25% to 100%) |
| CC(C)(C)c1cc(C(C)(C)C)c(NC(=O)c2c[nH]c3c(F)ccc(F)c3c2=O)cc1O [Compound 718, 5,8-difluoro-N-(5-hydroxy-2,4-ditert-butyl-phenyl)-4-oxo-1H-quinoline-3-carboxamide] | < 10 µM | ++ (between 25% to 100%) |

Second part, the molecule after the results:

| EC50 | % Activity | Compound |
| --- | --- | --- |
| < 10 µM | ++ (between 25% to 100%) | CC(C)(C)c1cc(C(C)(C)C)c(NC(=O)c2c[nH]c3c(F)cccc3c2=O)cc1O [Compound 687, 8-fluoro-N-(5-hydroxy-2,4-ditert-butyl-phenyl)-4-oxo-1H-quinoline-3-carboxamide] |
| < 10 µM | ++ (between 25% to 100%) | Cc1ccc2[nH]cc(C(=O)Nc3cc(O)c(C(C)(C)C)cc3C(C)(C)C)c(=O)c2c1 [Compound 688, N-(5-hydroxy-2,4-ditert-butyl-phenyl)-6-methyl-4-oxo-1H-quinoline-3-carboxamide] |
| < 10 µM | ++ (between 25% to 100%) | O=C(Nc1ccc(N2CCC2)cc1C(F)(F)F)c1c[nH]c2ccccc2c1=O [Compound 689, N-[4-azetidin-1-yl-2-(trifluoromethyl)phenyl]-4-oxo-1H-quinoline-3-carboxamide] |
| < 10 µM | ++ (between 25% to 100%) | COC(=O)c1c(NC(=O)c2c[nH]c3ccccc3c2=O)csc1C(C)(C)C [Compound 690, methyl 4-[(4-oxo-1H-quinolin-3-yl)carbonylamino]-2-tert-butyl-thiophene-3-carboxylate] |
| < 10 µM | ++ (between 25% to 100%) | COc1cc(NC(=O)c2c[nH]c3ccccc3c2=O)cc(C(F)(F)F)c1 [Compound 691, N-[3-methoxy-5-(trifluoromethyl)phenyl]-4-oxo-1H-quinoline-3-carboxamide] |
| < 10 µM | ++ (between 25% to 100%) | O=C(Nc1ccccc1-c1ccccn1)c1c[nH]c2ccccc2c1=O [Compound 692, 4-oxo-N-[2-(2-pyridyl)phenyl]-1H-quinoline-3-carboxamide] |
| < 10 µM | ++ (between 25% to 100%) | O=C(Nc1ccc2cc(C(F)(F)F)[nH]c2c1)c1c[nH]c2cccc(O)c2c1=O [Compound 693, 5-hydroxy-4-oxo-N-[2-(trifluoromethyl)-1H-indol-6-yl]-1H-quinoline-3-carboxamide] |
| < 10 µM | ++ (between 25% to 100%) | CC(C)(C)c1cc(C(C)(C)C)c(NC(=O)c2c[nH]c3cc(OC(F)(F)F)ccc3c2=O)cc1O [Compound 694, N-(5-hydroxy-2,4-ditert-butyl-phenyl)-4-oxo-7-(trifluoromethoxy)-1H-quinoline-3-carboxamide] |
| < 10 µM | ++ (between 25% to 100%) | O=C(Nc1cc(O)c(Cl)cc1F)c1c[nH]c2ccccc2c1=O [Compound 695, N-(4-chloro-2-fluoro-5-hydroxy-phenyl)-4-oxo-1H-quinoline-3-carboxamide] |
| < 10 µM | ++ (between 25% to 100%) | O=C(Nc1ccc(OC(F)(F)F)c(N2CCCCC2)c1)c1c[nH]c2ccccc2c1=O [Compound 696, 4-oxo-N-[3-(1-piperidyl)-4-(trifluoromethoxy)phenyl]-1H-quinoline-3-carboxamide] |
| < 10 µM | ++ (between 25% to 100%) | Cc1cccc2[nH]cc(C(=O)Nc3ccc(N4CCC[C@H]4C)cc3C(F)(F)F)c(=O)c12 [Compound 697, (R)-5-methyl-N-(4-(2-methylpyrrolidin-1-yl)-2-(trifluoromethyl)phenyl)-4-oxo-1,4-dihydroquinoline-3-carboxamide] |
| < 10 µM | ++ (between 25% to 100%) | O=C(Nc1ccc(N2CCC[C@@H]2C(=O)O)cc1C(F)(F)F)c1c[nH]c2ccccc2c1=O [Compound 698, (R)-1-[4-[(4-oxo-1H-quinolin-3-yl)carbonylamino]-3-(trifluoromethyl)phenyl]pyrrolidine-2-carboxylic acid] |
| < 10 µM | ++ (between 25% to 100%) | O=C(Nc1ccc(C(F)(F)F)c(O)c1)c1c[nH]c2cccc(O)c2c1=O [Compound 700, 5-hydroxy-N-[3-hydroxy-4-(trifluoromethyl)phenyl]-4-oxo-1H-quinoline-3-carboxamide] |
| < 10 µM | ++ (between 25% to 100%) | Cc1cccc2[nH]cc(C(=O)Nc3ccc(OC(C)C)c(O)c3)c(=O)c12 [Compound 701, N-(3-hydroxy-4-isopropoxy-phenyl)-5-methyl-4-oxo-1H-quinoline-3-carboxamide] |
| < 10 µM | ++ (between 25% to 100%) | CC(C)(C)c1cc(C(C)(C)C)c(NC(=O)c2c[nH]c3ccc(O)cc3c2=O)cc1O [Compound 702, 6-hydroxy-N-(5-hydroxy-2,4-ditert-butyl-phenyl)-4-oxo-1H-quinoline-3-carboxamide] |

From patent US8614327B2 (Vertex Pharmaceuticals Incorporated, priority 2004, dated 2013)
